Among the data in patent US20230192706A1, “BICYCLIC AMINES AS CDK2 INHIBITORS” (Incyte Corporation, priority 2021, published 2023) are IC50 values, retold here.

Broadly, the IC50 is the point on the concentration scale where inhibition reaches its midpoint.

This assay addresses T1, CDK2/Cyclin E1 (Homo sapiens, UniProt P24941).
T1 construct: full-length human CDK2 co-expressed as N-terminal GST-tagged protein; GST (N); purchased Carna 04-165; host or cells: baculovirus expression system
Description: CDK2/Cyclin E1 HTRF enzyme activity assay. In kind it is biochemical. The note with it: 1 mM ATP; CDK2/Cyclin E1 0.25 nM; 60 minutes at room temperature. How it is done: CDK2/Cyclin E1 enzyme activity assays utilize full-length human CDK2 co-expressed as N-terminal GST-tagged protein with FLAG-Cyclin E1 in a baculovirus expression system (Carna Product Number 04-165). Assays were conducted in white 384-well polystyrene plates in a final reaction volume of 8 µL. CDK2/Cyclin E1 (0.25 nM) was incubated with the compounds of the Examples (40 nL serially diluted in DMSO) in the presence of ATP (50 µM or 1 mM) and 50 nM ULight^Tm-labeled eIF4E-binding protein 1 (THR37/46) peptide (PerkinElmer) in assay buffer (containing 50 mM HEPES pH 7.5, 1 mM EGTA, 10 mM MgCl2, 2 mM DTT, 0.05 mg/mL BSA, and 0.01% Tween 20) for 60 minutes at room temperature. The reactions were stopped by the addition of EDTA and Europium-labeled anti-phospho-4E-BP1 antibody (PerkinElmer), for a final concentration of 15 mM and 1.5 nM, respectively. HTRF signals were read after 1 hour at room temperature on a PHERAstar FS plate reader (BMG Labtech). Data was analyzed with IDBS XLFit and GraphPad Prism 5.0 software using a three or four parameter dose response curve to determine IC50 for each compound.
In general terms: In TR-FRET formats the signal depends on donor and acceptor labels being close together.

Structures are written as SMILES.

For `CC(C)Oc1c(-c2cn[nH]c2)ncn2nc(NC3CCOC(C)C3)nc12` (single isomer, unassigned) [Example 6, 8-Isopropoxy-N-(2-methyltetrahydro-2H-pyran-4-yl)-7-(1H-pyrazol-4-yl)-[1,2,4]triazolo[1,5-c]pyrimidin-2-amine], the IC50 was under 10 nM.
`Cc1cc(-c2c(-c3cn[nH]c3)ccn3nc(NC4CCOCC4)nc23)ccc1C#N` [Example 1, 4-(7-(1H-Pyrazol-4-yl)-2-((tetrahydro-2H-pyran-4-yl)aminoamino)-[1,2,4]triazolo[1,5-a]pyridin-8-yl)-2-methylbenzonitrile] displayed an IC50 of under 10 nM.
Take `Cc1cc(-c2c(-c3cn[nH]c3)ccn3nc(N[C@H]4CCOC[C@H]4F)nc23)c(F)cc1C#N` [Example 2, 5-Fluoro-4-(2-(((3S,4S)-3-fluorotetrahydro-2H-pyran-4-yl)amino)-7-(1H-pyrazol-4-yl)-[1,2,4]triazolo[1,5-a]pyridin-8-yl)-2-methylbenzonitrile]: the IC50 is under 10 nM.
In the case of `F[C@@H]1CCN(c2c(-c3cn[nH]c3)ccn3nc(N[C@H]4CCOC[C@H]4F)nc23)C1` [Example 3, 8—((R)—3-Fluoropyrrolidin-1-yl)-N((3S,4S)-3-fluorotetrahydro-2H-pyran-4-yl)-7-(1H-pyrazol-4-yl)-[1,2,4]triazolo[1,5-α]pyridin-2-amine] it was under 10 nM; in that of `F[C@@H]1COCC[C@@H]1Nc1nc2c(N3CCCC(F)(F)C3)c(-c3cn[nH]c3)ccn2n1` [Example 4, 8-(3,3-Difluoropiperidin-1-yl)-N-((3S,4S)-3-fluorotetrahydro-2H-pyran-4-yl)-7-(1H-pyrazol-4-yl)-[1,2,4]triazolo[1,5-α]pyridin-2-amine], under 10 nM; in that of `CC(C)Oc1c(-c2cn[nH]c2)ccn2nc(N[C@H]3CCOC[C@H]3F)nc12` [Example 5, N-((3S,4S)-3-Fluorotetrahydro-2H-pyran-4-yl)-8-isopropoxy-7-(1H-pyrazol-4-yl)-[1,2,4]triazolo[1,5-α]pyridin-2-amine], under 10 nM.
The value for `CC(C)Oc1c(-c2cn[nH]c2)ncn2nc(N[C@H]3CCOC[C@H]3F)nc12` [Example 7, N-((3S, 4S)-3-Fluorotetrahydro-2H-pyran-4-yl)-8-isopropoxy-7-(1H-pyrazol-4-yl)-[1,2,4]triazolo[1,5-c]pyrimidin-2-amine] was under 10 nM.
Regarding `C[C@H](Oc1c(-c2cn[nH]c2)ncc2nc(N[C@H]3CCOC[C@H]3F)nn12)C(F)(F)F` [Example 8, N-((3S,4S)-3-Fluorotetrahydro-2H-pyran-4-yl)-6-(1H-pyrazol-4-yl)-5-(((5)-1,1,1-trifluoropropan-2-yl)oxy)-[1,2,4]triazolo[1,5-α]pyrazin-2-amine], the IC50 was under 10 nM.
The value for `C[C@@H](Oc1c(-c2cn[nH]c2)ncc2nc(N[C@H]3CCOC[C@H]3F)nn12)C(F)(F)F` [Example 9, N-((3S,4S)-3-Fluorotetrahydro-2H-pyran-4-yl)-6-(1H-pyrazol-4-yl)-5—(((R)—1,1,1-trifluoropropan-2-yl)oxy)-[1,2,4]triazolo[1,5-α]pyrazin-2-amine] was under 10 nM; that for `FC(F)C1(Oc2c(-c3cn[nH]c3)ncc3nc(N[C@H]4CCOC[C@H]4F)nn23)CCC1` [Example 10, 5-(1-(Difluoromethyl)cyclobutoxy)-N-((3S,4S)-3-fluorotetrahydro-2H-pyran-4-yl)-6-(1H-pyrazol-4-yl)-[1,2,4]triazolo[1,5-α]pyrazin-2-amine] was under 10 nM; that for `FC(F)C1(Oc2c(-c3cn[nH]c3)ncc3nc(NC4CCOCC4)nn23)CCC1` [Example 11, 5-(1-(Difluoromethyl)cyclobutoxy)-6-(1H-pyrazol-4-yl)-N-(tetrahydro-2H-pyran-4-yl)-[1,2,4] triazolo [1,5-α] pyrazin-2-amine] was under 10 nM.
Molecule `CC(C)Oc1c(-c2cn[nH]c2)ncc2nc(N[C@H]3CCOC[C@H]3F)nn12` [Example 12, N-((3S,4S)-3-Fluorotetrahydro-2H-pyran-4-yl)-5-isopropoxy-6-(1H-pyrazol-4-yl)-[1,2,4]triazolo[1,5-α] pyrazin-2-amine] showed an IC50 of under 10 nM.
The value for `F[C@@H]1COCC[C@@H]1Nc1nc2cnc(-c3cn[nH]c3)c(N3CCCCC3)n2n1` [Example 13, N-((3S,4S)-3-Fluorotetrahydro-2H-pyran-4-yl)-5-(piperidin-1-yl)-6-(1H-pyrazol-4-yl)-[1,2,4]triazolo[1,5-α]pyrazin-2-amine] was under 10 nM.
